According to ChEMBL document CHEMBL5247633, “Discovery of novel analogs of KHS101 as transforming acidic coiled coil containing protein 3 (TACC3) inhibitors for the treatment of glioblastoma” (Eur J Med Chem, 2022):

Test system: not listed separately
Assay: Antiproliferative activity against human U87 cells assessed as inhibition of cell growth incubated for 72 hrs by MTT assay
Format: functional, cell-based, U-87MG ATCC
Details: U-87 MG

| SMILES | IC50 |
| --- | --- |
| COc1cccc2c1C(=O)c1c(O)c3c(c(O)c1C2=O)C[C@@](O)(C(=O)CO)C[C@@H]3O[C@H]1C[C@H](N)[C@H](O)[C@H](C)O1 [DOXORUBICIN] | 0.25 µM |
| CC(C)CNc1ccnc(NC(=O)c2csc(-c3ccccc3)n2)n1 | 59.1 µM |
| c1ccc(-c2nc(CNc3ncccn3)cs2)cc1 | > 100 µM |
| CC(C)CNc1ccnc(NCc2csc(-c3ccc(C(F)(F)F)cc3)n2)n1 | 20.1 µM |
| CCCCN(CCCC)c1ccnc(NCc2csc(-c3ccccc3)n2)n1 | 14.8 µM |
| CC(C)CNc1ccnc(NCc2csc(-c3ccccc3)c2)n1 | 30.7 µM |
| c1ccc(-c2nc(CNc3nccc(N4CCCC4)n3)cs2)cc1 | 26.2 µM |
| c1ccc(-c2nc(CNc3nccc(NC4CC4)n3)cs2)cc1 | 72.3 µM |

Test system: SK-OV-3
Assay: Antiproliferative activity against human SK-OV-3 cells assessed as cell growth inhibition measured after 72 hrs by MTT assay
Format: functional, cell-based
Details: SK-OV-3, 72 h

| IC50 | SMILES |
| --- | --- |
| 0.19 µM | COc1cccc2c1C(=O)c1c(O)c3c(c(O)c1C2=O)C[C@@](O)(C(=O)CO)C[C@@H]3O[C@H]1C[C@H](N)[C@H](O)[C@H](C)O1 [DOXORUBICIN] |
| 83.5 µM | CC(C)CNc1ccnc(NC(=O)c2csc(-c3ccccc3)n2)n1 |
| 39 µM | CC(C)CNc1ccnc(NCc2csc(-c3ccc(C(F)(F)F)cc3)n2)n1 |
| 21.3 µM | CCCCN(CCCC)c1ccnc(NCc2csc(-c3ccccc3)n2)n1 |
| 26.2 µM | CC(C)CNc1ccnc(NCc2csc(-c3ccccc3)c2)n1 |
| 20.2 µM | c1ccc(-c2nc(CNc3nccc(N4CCCC4)n3)cs2)cc1 |
| 52.5 µM | c1ccc(-c2nc(CNc3nccc(NC4CC4)n3)cs2)cc1 |

Test system: not listed separately
Assay: Cytotoxicity against human U251 cells assessed as inhibition of cell growth measured after 72 hrs by MTT assay
Format: toxicity, cell-based, U-251
Details: not given

| SMILES | IC50 at 72 h |
| --- | --- |
| COc1cccc2c1C(=O)c1c(O)c3c(c(O)c1C2=O)C[C@@](O)(C(=O)CO)C[C@@H]3O[C@H]1C[C@H](N)[C@H](O)[C@H](C)O1 [DOXORUBICIN] | 0.45 µM |
| CC(C)CNc1ccnc(NC(=O)c2csc(-c3ccccc3)n2)n1 | 92.1 µM |
| c1ccc(-c2nc(CNc3ncccn3)cs2)cc1 | > 100 µM |
| CC(C)CNc1ccnc(NCc2csc(-c3ccc(C(F)(F)F)cc3)n2)n1 | 29.8 µM |
| CCCCN(CCCC)c1ccnc(NCc2csc(-c3ccccc3)n2)n1 | 14.2 µM |
| CC(C)CNc1ccnc(NCc2csc(-c3ccccc3)c2)n1 | 25.8 µM |
| c1ccc(-c2nc(CNc3nccc(N4CCCC4)n3)cs2)cc1 | 17.4 µM |
| c1ccc(-c2nc(CNc3nccc(NC4CC4)n3)cs2)cc1 | 59.5 µM |

Test system: not listed separately
Assay: Antiproliferative activity against human HLF1 cells assessed as cell growth inhibition measured after 72 hrs by MTT assay
Format: functional, cell-based
Details: HLF1, 72 h

| SMILES | IC50 |
| --- | --- |
| COc1cccc2c1C(=O)c1c(O)c3c(c(O)c1C2=O)C[C@@](O)(C(=O)CO)C[C@@H]3O[C@H]1C[C@H](N)[C@H](O)[C@H](C)O1 [DOXORUBICIN] | 0.23 µM |
| CC(C)CNc1ccnc(NCc2csc(-c3ccc(C(F)(F)F)cc3)n2)n1 | 65.3 µM |
| CCCCN(CCCC)c1ccnc(NCc2csc(-c3ccccc3)n2)n1 | 35.4 µM |
| CC(C)CNc1ccnc(NCc2csc(-c3ccccc3)c2)n1 | 61.2 µM |
| c1ccc(-c2nc(CNc3nccc(N4CCCC4)n3)cs2)cc1 | 61.8 µM |
| c1ccc(-c2nc(CNc3nccc(NC4CC4)n3)cs2)cc1 | > 100 µM |

Test system: JIMT-1
Assay: Antiproliferative activity against human JIMT-1 cells assessed as cell growth inhibition measured after 72 hrs by MTT assay
Format: functional, cell-based
Details: JIMT-1, 72 h

| SMILES | IC50 |
| --- | --- |
| COc1cccc2c1C(=O)c1c(O)c3c(c(O)c1C2=O)C[C@@](O)(C(=O)CO)C[C@@H]3O[C@H]1C[C@H](N)[C@H](O)[C@H](C)O1 [DOXORUBICIN] | 0.37 µM |
| CC(C)CNc1ccnc(NC(=O)c2csc(-c3ccccc3)n2)n1 | > 100 µM |
| CC(C)CNc1ccnc(NCc2csc(-c3ccc(C(F)(F)F)cc3)n2)n1 | 38 µM |
| CCCCN(CCCC)c1ccnc(NCc2csc(-c3ccccc3)n2)n1 | 13.2 µM |
| CC(C)CNc1ccnc(NCc2csc(-c3ccccc3)c2)n1 | 42.2 µM |
| c1ccc(-c2nc(CNc3nccc(N4CCCC4)n3)cs2)cc1 | 29.6 µM |
| c1ccc(-c2nc(CNc3nccc(NC4CC4)n3)cs2)cc1 | 68.8 µM |

Test system: MDA-MB-231
Assay: Antiproliferative activity against human MDA-MB-231 cells assessed as cell growth inhibition measured after 72 hrs by MTT assay
Format: functional, cell-based
Details: MDA-MB-231, 72 h

| IC50 | SMILES |
| --- | --- |
| 0.32 µM | COc1cccc2c1C(=O)c1c(O)c3c(c(O)c1C2=O)C[C@@](O)(C(=O)CO)C[C@@H]3O[C@H]1C[C@H](N)[C@H](O)[C@H](C)O1 [DOXORUBICIN] |
| > 100 µM | CC(C)CNc1ccnc(NC(=O)c2csc(-c3ccccc3)n2)n1 |
| 33 µM | CC(C)CNc1ccnc(NCc2csc(-c3ccc(C(F)(F)F)cc3)n2)n1 |
| 21.7 µM | CCCCN(CCCC)c1ccnc(NCc2csc(-c3ccccc3)n2)n1 |
| 27.4 µM | CC(C)CNc1ccnc(NCc2csc(-c3ccccc3)c2)n1 |
| 18.3 µM | c1ccc(-c2nc(CNc3nccc(N4CCCC4)n3)cs2)cc1 |
| > 100 µM | c1ccc(-c2nc(CNc3nccc(NC4CC4)n3)cs2)cc1 |
